From ChEMBL document CHEMBL1201862, “PubChem BioAssay data set” (2004)
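A five-concentration, 48-hour dose response in 96-well plates underlies each endpoint, interpolated linearly between surrounding concentrations. GI50 marks 50% less growth.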 Active and inactive are the calls of the source. No stated cut-off is given here; in the data, active = GI50 up to about 1.1 µM and inactive = higher. Non-standard residues stand in square brackets, D forms with d. Residues, ends and D or L forms follow the SMILES beside them. ξ: configuration not given here. *: point of attachment. ξNMeF = CNC(Cc1ccccc1)C(=O)O; NMeV = CN[C@H](C(=O)O)C(C)C; Boc = CC(C)(C)OC(=O)*; OBn = c1ccc(CO*)cc1

Legend:
Assay in all cases: DTP human tumour cell line panel, 48 h
CCRF-CEM = system: CCRF-CEM
HCT-15 = system: HCT-15
IGROV-1 = system: IGROV-1
KM12 = system: KM12
MCF7 = system: MCF7
MDA-MB-231 = system: MDA-MB-231
NCI-H23 = system: NCI-H23
NCI-H460 = system: NCI-H460
NCI/ADR-RES = system: NCI/ADR-RES
SF-295 = system: SF-295
SK-MEL-28 = system: SK-MEL-28
SK-MEL-2 = system: SK-MEL-2
SK-MEL-5 = system: SK-MEL-5
U-251 = system: U-251
UACC-257 = system: UACC-257
UACC-62 = system: UACC-62
UO-31 = system: UO-31
K562 = system: K562
SR = system: SR

| Structure (SMILES) | GI50 (CCRF-CEM) | GI50 (HCT-15) [µM] | GI50 (IGROV-1) | GI50 (KM12) | GI50 (MCF7) | GI50 (MDA-MB-231) | GI50 (NCI-H23) | GI50 (NCI-H460) | GI50 (NCI/ADR-RES) | GI50 (SF-295) | GI50 (SK-MEL-28) | GI50 (SK-MEL-2) | GI50 (SK-MEL-5) | GI50 (U-251) | GI50 (UACC-257) | GI50 (UACC-62) | GI50 (UO-31) | GI50 (K562) | GI50 (SR) |
| --- | --- | --- | --- | --- | --- | --- | --- | --- | --- | --- | --- | --- | --- | --- | --- | --- | --- | --- | --- |
| CCOC(=O)c1nnsc1NN | 18.8 µM (inactive) | > 100 | > 100 µM (inactive) | 95.3 µM (inactive) | 60.5 µM (inactive) | 53.8 µM (inactive) | > 100 µM (inactive) | 55.8 µM (inactive) | > 100 µM (inactive) | > 100 µM (inactive) | > 100 µM (inactive) | > 100 µM (inactive) | > 100 µM (inactive) | > 100 µM (inactive) | > 100 µM (inactive) | > 100 µM (inactive) | > 100 µM (inactive) | – | – |
| CCN(CC)CCNc1ccc2ncn3c4ccccc4c(=O)c1c23 | 4.1 µM (inactive) | 3.96 | 3.83 µM (inactive) | 5.2 µM (inactive) | – | – | 7.06 µM (inactive) | 2.26 µM (inactive) | – | 3.58 µM (inactive) | 4.12 µM (inactive) | 5.01 µM (inactive) | 3.52 µM (inactive) | 4.52 µM (inactive) | 4.23 µM (inactive) | 3.91 µM (inactive) | 2.08 µM (inactive) | 8.49 µM (inactive) | 1.63 µM (inactive) |
| Cc1ccc(-c2cc(=O)c3cc(C)c(C)c(C(=O)O)c3o2)cc1C | > 100 µM (inactive) | > 100 | > 100 µM (inactive) | > 100 µM (inactive) | – | – | > 100 µM (inactive) | > 100 µM (inactive) | – | > 100 µM (inactive) | > 100 µM (inactive) | > 100 µM (inactive) | > 100 µM (inactive) | > 100 µM (inactive) | > 100 µM (inactive) | > 100 µM (inactive) | > 100 µM (inactive) | > 100 µM (inactive) | > 100 µM (inactive) |
| COC(=O)CCC(=O)Nc1cc(Cl)ccc1Cl | > 100 µM (inactive) | > 100 | > 100 µM (inactive) | > 100 µM (inactive) | – | – | > 100 µM (inactive) | > 100 µM (inactive) | – | > 100 µM (inactive) | > 100 µM (inactive) | > 100 µM (inactive) | > 100 µM (inactive) | > 100 µM (inactive) | > 100 µM (inactive) | > 100 µM (inactive) | > 100 µM (inactive) | > 100 µM (inactive) | > 100 µM (inactive) |
| Cc1ccc(S(=O)(=O)Nn2c(O)c(C#N)c(-c3ccc(Cl)cc3)c(C#N)c2=O)cc1 | > 100 µM (inactive) | > 100 | > 100 µM (inactive) | > 100 µM (inactive) | > 100 µM (inactive) | > 100 µM (inactive) | – | > 100 µM (inactive) | > 100 µM (inactive) | > 100 µM (inactive) | > 100 µM (inactive) | > 100 µM (inactive) | > 100 µM (inactive) | > 100 µM (inactive) | > 100 µM (inactive) | > 100 µM (inactive) | – | > 100 µM (inactive) | – |
| CC(C)(C)NNC(=O)/C(=C/c1ccc(Oc2ccc(Cl)c(Cl)c2)cc1)NC(=O)c1ccccc1 | 69.5 µM (inactive) | > 100 | > 100 µM (inactive) | > 100 µM (inactive) | – | – | > 100 µM (inactive) | 40.6 µM (inactive) | – | > 100 µM (inactive) | > 100 µM (inactive) | > 100 µM (inactive) | > 100 µM (inactive) | > 100 µM (inactive) | > 100 µM (inactive) | > 100 µM (inactive) | > 100 µM (inactive) | 42.5 µM (inactive) | 16.9 µM (inactive) |
| CC(OC(=O)NCn1cc(-c2ccccc2)nn1)c1ccccc1 (configuration not stated) | 31.6 µM (inactive) | 50.6 | 35.4 µM (inactive) | 37.7 µM (inactive) | 38.5 µM (inactive) | 34.3 µM (inactive) | 27.1 µM (inactive) | 46.5 µM (inactive) | 33.7 µM (inactive) | 43.8 µM (inactive) | 97.9 µM (inactive) | 37.8 µM (inactive) | 17.3 µM (inactive) | 45.7 µM (inactive) | 35.1 µM (inactive) | – | – | 31.2 µM (inactive) | 30.2 µM (inactive) |
| O=C1/C(=C/c2cccc(Br)c2)Cc2ccccc21 | 58.7 µM (inactive) | 49.4 | 16.8 µM (inactive) | 19.3 µM (inactive) | 3.66 µM (inactive) | 44.9 µM (inactive) | 25.9 µM (inactive) | 30.8 µM (inactive) | 50.6 µM (inactive) | 39.7 µM (inactive) | > 100 µM (inactive) | 28.8 µM (inactive) | – | > 100 µM (inactive) | 91 µM (inactive) | 54.3 µM (inactive) | 31.8 µM (inactive) | 58.9 µM (inactive) | 24.5 µM (inactive) |
| CC(C)[C@@H](C(=O)N(C)[C@H](C(=O)N1CCC[C@H]1C(=O)OCc1ccccc1)C(C)C)N(C)C(=O)C(Cc1ccccc1)N(C)C(=O)[C@H](NC(=O)OC(C)(C)C)C(C)C (some centres not stated) (Boc-[dV][ξNMeF][NMeV][NMeV]P-OBn) | > 31.6 µM (inactive) | > 31.6 | > 31.6 µM (inactive) | > 10 µM (inactive) | – | – | – | > 31.6 µM (inactive) | – | 26.5 µM (inactive) | > 31.6 µM (inactive) | > 31.6 µM (inactive) | 15.6 µM (inactive) | > 31.6 µM (inactive) | > 31.6 µM (inactive) | > 31.6 µM (inactive) | > 31.6 µM (inactive) | 13.5 µM (inactive) | 19.7 µM (inactive) |
